Patent publication US20110212186A1, “COMPOSITION FOR TREATING AUTOIMMUNE DISORDERS” (priority 2008, published 2011)

Experiments:
[1] = system: Bovine articular cartilage explants; test: Chondroitin sulphate (sGAG) release from bovine cartilage explants, anabolic conditions; format: cell-based; conditions: for effect on accumulated chondroitin sulphate release day 10-23: Oligomin 200 and 400 μg/ml, glucosamine 400 μg/ml, T-ChOS 50-400 μg/ml, A 200 and 400 μg/ml; for accumulative chondroitin sulphate release day 17-24: combination experiment, IGF-1 100 ng/ml
Experimental: (§1) For cartilage explant experiments, aminosugar concentrations tested were as follows. Oligomin and T-ChOS, 50, 100, 200 and 400 μg/ml in the media. N-acetyl glucosamine (A) and glucosamine (D), 200 and 400 μg/ml in the media. A+D combination were 200 μg/ml each in the media.
(§2) Bovine articular cartilage explants cultures are used as a model for cartilage degenerative diseases that enables experiments in a robust and simple test-model/assay, where the effect of growth factors and drugs on cartilage metabolism can be investigated [ Olsen, A.K., et al., Anabolic and catabolic function of chondrocyte ex vivo is reflected by the metabolic processing of type II collagen. Osteoarthritis and Cartilage, 2007, 15(3): p. 335-342.].
(§3) The knees were opened under semi-sterile conditions in a LAF bench. Cuts of surface articular cartilage were removed in a one-movement-maneuver, removing only the outermost layer. Too deep cuts will contain underlying subchondral bone /chondrosteous material. Uniform explants were harvested from both femur and tibia. Explants from the cartilage situated at the chondyles were avoided. The explants were transferred into a Petri-dish containing PBS+pen/strep (penincillin/streptomycin).
(§4) The explants were individually weighed and transferred into a sterile 96 well plate under semi-sterile conditions in a flow-bench. Prior, the wells were filled with 200 μL PBS+pen/strep, to keep the explants wet after weighing. Then PBS was removed, and medium containing different types and concentration of aminosugars were applied to the wells, 200 μL/well, according to the set-up. Four explant replicates were used for each test. The plates were incubated at 37° C. and 5% CO2 with shaking 50 rpm. The plates were covered in a CO2 permeable plastic bag to limit/avoid contamination from spores. The conditioning medium was replaced every 2nd - 3rd day, and the supernatant was transferred into a new 96 wells plate and stored at −20° C. until end of experiment. Fresh medium different types and concentration of aminosugars were applied to the wells, 200 μL/well, according to the setup every 2nd- 3rd day.
For detection of sulfated glycosaminoglycans (sGAG) that is chondroitin sulphate release, the quantitative dye-binding assay for in vitro analysis of GAG release was used according to the manufacturer's instructions (Wieslab, S).

[2] = system: Bovine articular cartilage explants; test: Collagen type II formation (PIINP ELISA) in bovine cartilage explants; format: cell-based; conditions: for effect on PIINP, day 22: Oligomin and T-ChOS 50-400 μg/ml, A and D 200 and 400 μg/ml
Experimental: as §1, §2, §3
as §4, with “The conditioning medium was replaced every 2nd - 3rd day, and the supernatant was transferred into a new 96 wells plate and stored at −20° C. until end of experiment. Fresh medium different types and concentration of aminosugars were applied to the wells, 200 μL/well, according to the setup every 2nd- 3rd day.” left out
Supernatants were measured for type II collagen formation (PIINP), for aggrecanase-mediated aggrecan degradation. […]
Collagen type II formation is measured by a specific ELISA assay based on an antibody that recognizes an epitope on the PIINP molecule outside the exon 2 (PIIANP). […]

YKL-40 = test: Extracellular YKL-40 release in human cartilage explant media; format: cell-based; conditions: 400 μg/ml
Experimental: Cartilage explants were obtained from a knee of a person suffering from osteoarthritis. Explants were kept in growth media under anabolic conditions for 25 days. Fresh media was applied every 2-3 days. Aminosugars (Oligomin, T-ChOS, A and D; different concentration) were kept in media from day 0 to day 25. Since YKL-40 is a proposed receptor for the T-ChOS, the extracellular YKL-40 release was analyzed in media at day 4, 11, 15, 20 and 25 in explants treated with 400 μg/ml of T-ChOS, Oligomin and glucosamine (D). […] For the control there was a significant drop in the YKL-40 expression between day 10 and 20. […] Glucosamine had no effect (FIG. 7). […] This relationship disappeared when the T-ChOS group was excluded from the data (no linear regression).

[3] = system: human OA articular cartilage explants; test: Cell viability by Alamar Blue, human OA articular cartilage explants; format: cell-based; conditions: linear regression p<0.05
Experimental: To ensure the specific and non-toxic action of aminosugars, the metabolic activity of chondrocytes were measured by Alamar Blue, which previously has shown to correlate to cell number and cell viability. Cartilage explants were obtained from a knee of a person suffering from osteoarthritis. Explants were kept in growth media under anabolic conditions for 25 days. Fresh media was applied every 2-3 days. Aminosugars (Oligomin, T-ChOS, A and D; different concentration) were kept in media from day 0 to day 25.

[4] = system: type II collagen arthritis in rats; test: Type II collagen induced rheumatoid arthritis rat model, oral dosing; format: in vivo
Experimental: Animals used were 10 per group for arthritis-Induced groups, 4/group for non-induced control group), housed 4-5/cage. For the arthritis induction, the animals were anesthetized with Isoflurane and given subcutaneous/intradermal (SC/ID) injections of 300 μl of Freund's Incomplete Adjuvant (Difco, Detroit, Mich.), containing 2 mg/ml bovine type II collagen (Elastin Products, Owensville, Mo.), at the base of the tail and 2 sites on the back on days 0 and 6. Dosing of the various oligomer and/or monomer compositions by oral route (QD at 24 hr intervals) was initiated on day 0 of the study and continued through day 16. Animals were terminated on study day 17. Efficacy evaluation was based on ankle caliper measurements, expressed as area under the curve (AUC), terminal hind paw weights, and histopathologic evaluation of ankles and knees. For statistical analysis various inflammation calculations were performed for the ankle diameter data, Anova and t-tests (parametrical or non-parametrical tests) were applied according to software guidelines ([…]). All animals survived to study termination.

[5] = system: human OA cartilage explant; test: Collagen type II formation (PIINP) in human OA cartilage explants; format: cell-based; conditions: different concentrations
Experimental: Collagen type II formation is measured by a specific ELISA assay based on an antibody that recognizes an epitope on the PIINP molecule outside the exon 2 (PIIANP). Therefore the EUSA is not specific for the HA or the IIB form but reacts with both forms. Cartilage explants were obtained from a knee of a person suffering from osteoarthritis. Explants were kept in growth media under anabolic conditions for 25 days. Fresh media was applied every 2-3 days. Aminosugars (Oligomin, T-ChOS, A and D; different concentration) were kept in media from day 0 to day 25.

[6] = system: Bovine articular cartilage explants; test: Extracted cartilage protein content, bovine explants; format: cell-based; conditions: combination experiment
Experimental: The cartilage was extracted to determine the cartilage content of various proteins, in comparison of that secreted to the medium.
Cartilage explants were frozen in liquid nitrogen. The frozen explants were pulverized using Bessman Tissue Pulverizer according to the instructions supplied by the manufacturer. The powder was placed in 14 ml tube using frozen scalpel. Ice-cold Digestive Buffer (50 mM Tris.HCL buffer, pH 7.4 containing 0.1M NaCL and 0.1% Triton X-100) was added and the solution homogenized for 30 sec using Polytron PT-MR 3000 homogenizer (Brinkmann, Littau-Switzerland).The homogenate was then centrifuged at 15,000 rpm for 20 min and the supernatant collected and stored at −80° C. until further analysis.

## CC(=O)N[C@H]1C(O)O[C@H](CO)[C@@H](O)[C@@H]1O (stereo partly shown) [N-acetyl glucosamine]
[1]
  effect on accumulated chondroitin sulphate release day 10-23: no significant effect
[2]
  effect on PIINP, day 22: no effect

## N[C@H]1C(O)O[C@H](CO)[C@@H](O)[C@@H]1O (stereo partly shown) [glucosamine]
YKL-40
  YKL-40 expression in media, late period (day 15-25): no effect
[1]
  effect on accumulated chondroitin sulphate release day 10-23: significant reduction
  accumulative chondroitin sulphate release day 17-24: neither T-ChOS nor glucosamine alone did have any significant effect
[1]; listed as Glucosamine
  effect on accumulated chondroitin sulphate release day 10-23: same effect
[3]
  Cell-viability at day 25 (Alamar Blue), induction: least
[4]; 21 mg/kg D alone
  Summed knee scores, non-significant increase vs disease controls: 14%
[4]; T-ChOS 7.1 mg/kg (Group 3), D 21.4 mg/kg (Group 4), T-ChOS 7.1 + D 21.4 mg/kg (Group 5)
  Inhibition of summed ankle histopathology parameters: 12%
[4]; T-ChOS 7.1 mg/kg alone, D-glucosamine 21.4 mg/kg alone
  overall benefit in the rat arthritis study (summary): no beneficial effect
[4]; T-ChOS 7.1 mg/kg, D 21.4 mg/kg, combination T-ChOS 7.1 + D 21.4 mg/kg
  accumulative ankle diameter (day 9-17): no effect
[5]
  effect on PIINP expression day 18-25: no effect
[2]; combination experiment, T-ChOS 50 and 400 μg/ml, T-ChOS 400 μg/ml + glucosamine 200 μg/ml, glucosamine 200 μg/ml, Oligomin 50-400 μg/ml
  accumulated PIINP release (day 20 and day 24): no effect
[2]
  effect on PIINP, day 22: no effect

## IGF-1: Insulin-like Growth Factor-1, 100 ng/ml, positive anabolic stimulation control
[6]
  extracted cartilage protein assay at day 24: did not reveal any significant effect
[1]
  accumulative chondroitin sulphate release day 17-24: significant Increase
